Reference: US7935819B2, “Cyclic urea derivatives, preparation thereof and pharmaceutical use thereof as kinase inhibitors” (Aventis Pharma S.A., priority 2006, dated 2011)
Like-named read-outs stand apart in the source and are kept apart here.

Tests used:
[1] = biological target: T1, IGF-1R (human cytoplasmic domain fused with GST) (Homo sapiens, UniProt P08069); test: Kinase IGF-1R test (Test A): inhibition of autophosphorylation of the enzyme, HTRF; assay type: biochemical; conditions: 120 μM ATP
T1 construct: The human cytoplasmic domain of IGF-1R was cloned by fusion with glutathione S-transferase (GST); made in house; host or cells: SF21 insect cells (baculovirus, pFastBac-GST)
T1 sequence (P08069 960-1367 limits assumed): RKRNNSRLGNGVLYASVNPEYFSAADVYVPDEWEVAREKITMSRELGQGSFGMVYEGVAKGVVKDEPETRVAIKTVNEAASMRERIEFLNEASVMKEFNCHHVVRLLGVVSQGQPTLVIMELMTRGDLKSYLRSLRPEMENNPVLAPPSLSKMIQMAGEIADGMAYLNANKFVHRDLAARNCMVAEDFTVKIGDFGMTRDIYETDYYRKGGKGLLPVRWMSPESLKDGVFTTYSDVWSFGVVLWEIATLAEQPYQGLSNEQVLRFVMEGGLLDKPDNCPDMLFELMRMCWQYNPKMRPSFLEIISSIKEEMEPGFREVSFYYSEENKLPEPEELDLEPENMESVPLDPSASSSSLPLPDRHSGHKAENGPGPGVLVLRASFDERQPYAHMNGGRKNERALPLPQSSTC
Procedure: A) Experimental Protocol for the Kinase IGF-1R Test:
The inhibitory activity of the compounds on IGF1R is determined by measuring the inhibition of autophosphorylation of the enzyme using a time-resolved fluorescence test (HTRF). The human cytoplasmic domain of IGF-1R was cloned by fusion with glutathione S-transferase (GST) in the baculovirus expression vector pFastBac-GST. The protein is expressed in the SF21 cells and purified to about 80% homogeneity. For the enzymatic test, the test compound at 10 mM dissolved in DMSO is diluted in 1/3 steps in a 50 mM Hepes, pH 7.5, 5 mM MnCl2, 50 mM NaCl, 3% Glycerol, 0.025% Tween 20 buffer. To measure the inhibition, the successive dilutions of the compound are preincubated for 30 minutes and 90 minutes in the presence of 5 nM of enzyme, the final DMSO concentration not exceeding 1%. The enzymatic reaction is initiated to have a final ATP concentration of 120 μM, and is stopped after 5 minutes by addition of 100 mM Hepes, pH 7.0 buffer containing 0.4 M of potassium fluoride, 133 mM EDTA, 0.1% BSA, the XL665-labelled antibody anti-GST and the anti-phosphotyrosine antibody conjugated to europium cryptate Eu—K (Cis-Bio Int.). The characteristics of the two fluorophores, XL-665 and Eu—K, are available in G. Mathis et al., Anticancer Research, 1997, 17, pages 3011-3014. The energy transfer between the excited europium cryptate to the acceptor XL665 is proportional to the degree of autophosphorylation of IGF-1R. The specific long-lasting signal of XL-665 is measured in a GENios Pro TECAN plate counter. The inhibition of autophosphorylation of IGF-1R at time 30 minutes and 90 minutes with the test compounds of the invention is calculated relative to a 1% in DMSO control, whose activity is measured in the absence of compound. The curve representing the percentage of inhibition as a function of the log of the concentration is established to determine the concentration corresponding to 50% inhibition (IC50).

[2] = biological target: T2, IGF1R in MCF-7 cells (Homo sapiens, UniProt P08069); test: Autophosphorylation of IGF-1R in MCF7 cells after stimulation with IGF-1 (Test B), ELISA; assay type: cell-based; conditions: compound added one hour before IGF1 stimulation (10 minutes)
T2 construct: endogenous in cells; host or cells: MCF-7 cells
T2 sequence (P08069 31-1367): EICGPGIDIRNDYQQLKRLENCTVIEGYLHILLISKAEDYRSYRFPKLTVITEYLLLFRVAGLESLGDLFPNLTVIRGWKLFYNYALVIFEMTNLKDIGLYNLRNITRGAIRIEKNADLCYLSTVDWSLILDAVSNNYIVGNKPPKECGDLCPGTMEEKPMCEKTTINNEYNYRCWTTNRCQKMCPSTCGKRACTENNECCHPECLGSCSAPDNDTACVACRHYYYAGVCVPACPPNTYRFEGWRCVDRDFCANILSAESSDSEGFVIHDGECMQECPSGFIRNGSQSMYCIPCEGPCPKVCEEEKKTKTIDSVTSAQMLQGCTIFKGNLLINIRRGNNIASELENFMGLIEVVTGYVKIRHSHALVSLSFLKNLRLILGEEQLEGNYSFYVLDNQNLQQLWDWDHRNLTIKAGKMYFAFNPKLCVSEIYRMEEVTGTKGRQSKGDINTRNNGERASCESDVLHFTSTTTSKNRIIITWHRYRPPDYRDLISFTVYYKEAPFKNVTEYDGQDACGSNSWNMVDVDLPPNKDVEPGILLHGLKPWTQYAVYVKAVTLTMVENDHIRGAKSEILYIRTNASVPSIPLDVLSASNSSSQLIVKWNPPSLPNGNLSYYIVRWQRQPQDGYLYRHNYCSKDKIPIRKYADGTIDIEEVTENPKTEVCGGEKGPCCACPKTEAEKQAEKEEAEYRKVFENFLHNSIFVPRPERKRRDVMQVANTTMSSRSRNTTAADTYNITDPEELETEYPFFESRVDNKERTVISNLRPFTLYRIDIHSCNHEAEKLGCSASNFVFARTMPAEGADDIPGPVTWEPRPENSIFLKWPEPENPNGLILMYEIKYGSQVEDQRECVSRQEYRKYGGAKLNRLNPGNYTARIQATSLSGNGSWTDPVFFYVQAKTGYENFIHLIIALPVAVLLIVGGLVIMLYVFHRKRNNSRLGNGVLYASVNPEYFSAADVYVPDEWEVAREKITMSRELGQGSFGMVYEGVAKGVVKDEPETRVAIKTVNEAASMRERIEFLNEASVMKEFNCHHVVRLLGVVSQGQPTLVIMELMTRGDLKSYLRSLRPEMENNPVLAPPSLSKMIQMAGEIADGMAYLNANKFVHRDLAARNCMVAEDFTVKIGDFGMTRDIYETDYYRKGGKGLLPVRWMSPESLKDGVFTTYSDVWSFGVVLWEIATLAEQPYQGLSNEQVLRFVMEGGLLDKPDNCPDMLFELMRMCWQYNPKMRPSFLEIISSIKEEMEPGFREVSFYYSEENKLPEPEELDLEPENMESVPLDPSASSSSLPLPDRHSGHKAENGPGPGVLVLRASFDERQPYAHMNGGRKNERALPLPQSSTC
Procedure: B) Measurement of the Autophosphorylation of IGF-1r in MCF7 Cells after Stimulation with IGF-1
Cell Culturing and Execution of the Test:
The autophosphorylation of IGF1R in the IGF1-induced cells is evaluated by means of an ELISA technique (Enzyme Linked ImmunoSorbent Assay). The MCF-7 are seeded at 60 000 cells per well in 6-well plates and incubated at 37° C., 5% CO2 in medium containing 10% serum. After one night in 10% serum, the cells are deprived of serum for 24 hours. The compounds are added to the medium one hour before stimulation with IGF1. After 10 minutes of stimulation with IGF1, the cells are lysed with a buffer (Hepes 50 mM pH 7.6, Triton X100 1%, orthovanadate 2 mM, protease inhibitor cocktail). The cell lysates are incubated on a 96-well plate precoated with an anti-IGF1R antibody, followed by incubation with an anti-phosphotyrosine antibody coupled to the enzyme peroxidase. The level of peroxidase activity (measured by OD with a luminescent substrate) reflects the phosphorylation status of the receptor.
(§1) (i) The tests are performed in duplicate and the mean of the two tests is calculated.
(§2) (ii) The value of the signal of the maximum response is calculated from the positive control: cells stimulated with IGF1 without compound.
(§3) (iii) Value of the signal of the minimum response is calculated from the negative control: cells not stimulated with IGF1 without compound.
(§4) (iv) By using these values as maximum (100%) and minimum (0%), respectively, the data were normalized so as to give a percentage of the maximum response.
(§5) (v) A curve of dose response is plotted and the IC50 (the concentration of which the compound induces a 50% decrease in the signal) of the compound is calculated by non-linear regression analysis.

[3] = biological target: MEF-IGF1R cells (stable clone transfected with hIGF-1R) (Homo sapiens, UniProt P08069); test: Proliferation/viability of MEF-IGF1R (Test C), [14C]thymidine incorporation; assay type: cell-based; conditions: rhIGF1 100 ng/mL, 72 hours, read-out: Test C IC50
Sequence of MEF-IGF1R cells (stable clone transfected with hIGF-1R) (P08069 whole entry, change not shown): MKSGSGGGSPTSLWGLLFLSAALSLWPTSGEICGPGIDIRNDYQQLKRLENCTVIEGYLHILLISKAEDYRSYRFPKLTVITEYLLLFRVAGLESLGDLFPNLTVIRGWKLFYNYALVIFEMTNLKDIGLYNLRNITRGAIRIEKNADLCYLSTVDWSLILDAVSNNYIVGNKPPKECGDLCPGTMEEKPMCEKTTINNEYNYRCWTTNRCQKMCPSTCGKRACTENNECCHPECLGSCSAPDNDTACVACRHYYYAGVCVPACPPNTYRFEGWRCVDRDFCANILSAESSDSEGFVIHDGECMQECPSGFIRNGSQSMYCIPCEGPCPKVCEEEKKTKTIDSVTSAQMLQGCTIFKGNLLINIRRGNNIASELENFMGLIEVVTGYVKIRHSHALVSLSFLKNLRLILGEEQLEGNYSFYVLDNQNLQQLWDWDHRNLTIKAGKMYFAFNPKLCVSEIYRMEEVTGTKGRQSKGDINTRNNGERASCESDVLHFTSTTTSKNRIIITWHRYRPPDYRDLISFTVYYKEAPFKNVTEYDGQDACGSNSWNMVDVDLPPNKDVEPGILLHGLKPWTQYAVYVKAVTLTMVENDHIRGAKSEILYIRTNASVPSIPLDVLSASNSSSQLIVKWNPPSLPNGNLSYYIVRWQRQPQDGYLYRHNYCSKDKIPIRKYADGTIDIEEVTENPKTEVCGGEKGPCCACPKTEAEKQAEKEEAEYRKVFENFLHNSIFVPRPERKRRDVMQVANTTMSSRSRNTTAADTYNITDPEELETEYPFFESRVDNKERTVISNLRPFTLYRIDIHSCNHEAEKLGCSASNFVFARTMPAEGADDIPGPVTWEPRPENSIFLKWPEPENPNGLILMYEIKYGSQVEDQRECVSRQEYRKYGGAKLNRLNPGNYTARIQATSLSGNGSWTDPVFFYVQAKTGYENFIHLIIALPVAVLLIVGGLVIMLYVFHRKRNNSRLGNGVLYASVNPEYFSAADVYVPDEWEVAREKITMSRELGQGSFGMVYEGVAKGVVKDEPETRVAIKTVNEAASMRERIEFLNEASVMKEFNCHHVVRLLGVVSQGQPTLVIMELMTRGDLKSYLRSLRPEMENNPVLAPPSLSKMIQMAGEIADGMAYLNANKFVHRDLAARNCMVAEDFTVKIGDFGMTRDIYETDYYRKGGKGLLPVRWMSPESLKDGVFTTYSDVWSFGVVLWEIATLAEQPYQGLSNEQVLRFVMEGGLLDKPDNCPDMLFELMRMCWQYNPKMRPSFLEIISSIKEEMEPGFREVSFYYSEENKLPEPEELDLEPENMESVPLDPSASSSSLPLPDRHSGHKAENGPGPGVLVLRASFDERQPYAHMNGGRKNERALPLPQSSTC
Procedure: C) Measurement of the Proliferation/Viability of MEF-IGF1R
Cell culture: the MEF-IGF1R cells (stable clone of cells transfected with the receptor hIGF-1R) are cultured at 37° C. under 5% CO2 in EMEM medium containing 10% FCS.
Test procedure: the cells are seeded at 5000 cells per well in 96-well Cytostar plates (Amersham) with 0.2 mL of EMEM culture medium at 37° C. for 18 hours. The cells are then washed twice with EMEM medium and left to culture without serum for 24 hours. The compounds are then added at various concentrations in the presence of rhIGF1 (100 ng/mL) and 0.1 μCi of Thymidine [^14C] (specific activity ˜50 mCi/mmol) to give 0.2 mL of volume per well. After incubation for 72 hours in the presence of the compound, at 37° C. under 5% CO2, the incorporation of Thymidine [^14C] is measured by counting the radioactivity on a Microbeta trilux counter (Perkin-Elmer). The IC50 is determined from 10 increasing concentrations of the compound.
as §1, §2, §3, §4, §5

[4] = preincubation with enzyme 30 minutes, read-out: Test A 30′ IC50
[5] = preincubation with enzyme 90 minutes, read-out: Test A 90′ IC50

| IC50 [1, 4] [µM] | IC50 [1, 5] [µM] | IC50 [2] [µM] | SMILES | GI50 [3] [µM] |
| --- | --- | --- | --- | --- |
| 0.01 to 0.1 | < 0.01 | 0.01 to 0.1 | CC(C)(C)c1ccc(N2C(=O)N(Cc3ccnc(NC4CC4)c3)C(C)(C)C2=O)cc1 [Example 31J, 3-(4-tert-butylphenyl)-1-{[2-(cyclopropylamino)pyridin-4-yl]methyl}-5,5-dimethylimidazolidine-2,4-dione] | 0.01 to 0.1 |
| 0.01 to 0.1 | 0.01 to 0.1 | < 0.01 | CC(C)(C)c1ccc(N2C(=O)N(Cc3ccnc(NC(=O)N4CCCC4)c3)C(C)(C)C2=O)cc1 [Example 19, N-(4-{[3-(4-tert-butylphenyl)-5,5-dimethyl-2,4-dioxoimidazolidin-1-yl]methyl}pyridin-2-yl)pyrrolidine-1-carboxamide] | 0.01 to 0.1 |
| 0.01 to 0.1 | < 0.01 | < 0.01 | CC(C)(C)c1ccc(N2C(=O)N(Cc3ccnc(Nc4cncnc4)n3)C(C)(C)C2=O)cc1 [Example 8, 3-(4-tert-butylphenyl)-5,5-dimethyl-1-{[2-(pyrimidin-5-ylamino)pyrimidin-4-yl]methyl}imidazolidine-2,4-dione] | < 0.01 |
| 0.01 to 0.1 | < 0.01 | < 0.01 | CC(C)(C)c1ccc(N2C(=O)N(Cc3ccnc(Nc4cccnc4)n3)C(C)(C)C2=O)cc1 [Example 1, 3-(4-tert-butylphenyl)-5,5-dimethyl-1-[2-(pyridin-3-ylamino)pyrimidin-4-ylmethyl]imidazolidine-2,4-dione] | < 0.01 |
| 0.01 to 0.1 | < 0.01 | < 0.01 | CC(C)(C)c1ccc(N2C(=O)N(Cc3ccnc(Nc4ccc(CCN5CCCC5)cc4)c3)C(C)(C)C2=O)cc1 [Example 31U, 3-(4-tert-butylphenyl)-5,5-dimethyl-1-[(2-{[4-(2-pyrrolidin-1-ylethyl)phenyl]amino}pyridin-4-yl)methyl]imidazolidine-2,4-dione] | < 0.01 |
| 0.01 to 0.1 | 0.01 to 0.1 | 0.01 to 0.1 | CC(C)(C)c1ccc(N2C(=O)N(Cc3ccnc(Nc4ccc(O)nc4)c3)C(C)(C)C2=O)cc1 [Example 31M, 3-(4-tert-butylphenyl)-1-({2-[(6-hydroxypyridin-3-yl)amino]pyridin-4-yl}methyl)-5,5-dimethylimidazolidine-2,4-dione] | 0.01 to 0.1 |
| 0.01 to 0.1 | < 0.01 | < 0.01 | CC(C)(C)c1ccc(N2C(=O)N(Cc3ccnc(Nc4cccc(CCN5CCCC5)c4)c3)C(C)(C)C2=O)cc1 [Example 31H, 3-(4-tert-butylphenyl)-5,5-dimethyl-1-[(2-{[3-(2-pyrrolidin-1-ylethyl)phenyl]amino}pyridin-4-yl)methyl]imidazolidine-2,4-dione] | < 0.01 |
| > 0.1 | 0.01 to 0.1 | 0.01 to 0.1 | CC(C)NCC(=O)N1CC(C)(C)c2ccc(N3C(=O)N(Cc4ccnc(Nc5cccnc5)c4)C(C)(C)C3=O)cc21 [Example 31D, 3-[1-(N-isopropylglycyl)-3,3-dimethyl-2,3-dihydro-1H-indol-6-yl]-5,5-dimethyl-1-{[2-(pyridin-3-ylamino)pyridin-4-yl]methyl}imidazolidine-2,4-dione] | 0.01 to 0.1 |
| 0.01 to 0.1 | 0.01 to 0.1 | 0.01 to 0.1 | CC(C)(C)c1ccc(N2C(=O)N(Cc3ccnc(NC(=O)NC4CC4)c3)C(C)(C)C2=O)cc1 [Example 13, 1-(4-{[3-(4-tert-butylphenyl)-5,5-dimethyl-2,4-dioxoimidazolidin-1-yl]methyl}pyridin-2-yl)-3-cyclopropylurea] | 0.01 to 0.1 |
| > 0.1 | > 0.1 | 0.01 to 0.1 | CC(C)NCC(=O)N1CC(C)(C)c2ccc(N3C(=O)N(Cc4ccnc(NC(=O)N(C)C)c4)C(C)(C)C3=O)cc21 [Example 31E, 3-[4-({3-[1-(N-isopropylglycyl)-3,3-dimethyl-2,3-dihydro-1H-indol-6-yl]-5,5-dimethyl-2,4-dioxoimidazolidin-1-yl}methyl)pyridin-2-yl]-1,1-dimethylurea] | 0.01 to 0.1 |
| > 0.1 | > 0.1 | 0.01 to 0.1 | CN(C)CC(=O)N1CC(C)(C)c2ccc(N3C(=O)N(Cc4ccnc(NC(=O)N(C)C)c4)C(C)(C)C3=O)cc21 [Example 31C, 3-[4-({3-[1-(N,N-dimethylglycyl)-3,3-dimethyl-2,3-dihydro-1H-indol-6-yl]-5,5-dimethyl-2,4-dioxoimidazolidin-1-yl}methyl)pyridin-2-yl]-1,1-dimethylurea] | 0.01 to 0.1 |
| > 0.1 | 0.01 to 0.1 | 0.01 to 0.1 | CC(C)(C)c1ccc(N2C(=O)N(Cc3ccnc(Nc4cccc(F)c4)c3)C(C)(C)C2=O)cc1 [Example 31I, 3-(4-tert-butylphenyl)-1-({2-[(3-fluorophenyl)-amino]pyridin-4-yl}methyl)-5,5-dimethylimidazolidine-2,4-dione] | < 0.01 |
| 0.01 to 0.1 | < 0.01 | 0.01 to 0.1 | CC(C)(C)c1ccc(N2C(=O)N(Cc3ccnc(Nc4cccc(CN5CCCC5)c4)c3)C(C)(C)C2=O)cc1 [Example 31G, 3-(4-tert-butylphenyl)-5,5-dimethyl-1-[(2-{[3-(pyrrolidin-1-ylmethyl)phenyl]amino}pyridin-4-yl)methyl]imidazolidine-2,4-dione] | < 0.01 |
| 0.01 to 0.1 | < 0.01 | 0.01 to 0.1 | CC(C)(C)c1ccc(N2C(=O)N(Cc3ccnc(NC(N)=O)c3)C(C)(C)C2=O)cc1 [Example 31P, 1-(4-{[3-(4-tert-butylphenyl)-5,5-dimethyl-2,4-dioxoimidazolidin-1-yl]methyl}pyridin-2-yl)urea] | < 0.01 |
| 0.01 to 0.1 | < 0.01 | 0.01 to 0.1 | CC(C)(C)c1ccc(N2C(=O)N(Cc3ccnc(Nc4ccc(CN5CCCC5)cc4)c3)C(C)(C)C2=O)cc1 [Example 31F, 3-(4-tert-butylphenyl)-5,5-dimethyl-1-[(2-{[4-(pyrrolidin-1-ylmethyl)phenyl]amino}pyridin-4-yl)methyl]imidazolidine-2,4-dione] | < 0.01 |
| > 0.1 | > 0.1 | 0.01 to 0.1 | CC(C)(C)c1ccc(N2C(=O)N(Cc3ccnc(NC(=O)Nc4cccnc4)c3)C(C)(C)C2=O)cc1 [Example 31O, 1-(4-{[3-(4-tert-butylphenyl)-5,5-dimethyl-2,4-dioxoimidazolidin-1-yl]methyl}pyridin-2-yl)-3-pyridin-3-ylurea] | 0.01 to 0.1 |
